Data set [1] concerns 2019 novel coronavirus (SARS-CoV-2) original strain. Nature of the data set: Replication inhibitory activity against SARS-CoV-2 original strain in Vero E6 cells (qRT-PCR). It counts as cell-based. (In qPCR the cycle at which signal appears reflects the starting amount.)
The subject of data set [2] is IL-6, IL-1β, CXCL9 mRNA in Raw 264.7 cells. The experiment in a line: mRNA levels of inflammatory indicators in LPS-induced inflammation model of Raw264.7 cells (Q-PCR). The data set is classed as cell-based. Conditions: 1 μg/ml LPS, 1 μM compound, 16 hours. As for the experimental part:
In this example, the effect of the compounds of the present invention on the inflammation level of the LPS-induced inflammation model of Raw 264.7 cells was analyzed by cell viability in combination with inflammatory factors; cell viability was analyzed by CCK-8 assay; and mRNA expression levels of inflammation-related indicators were detected by a real-time quantitative PCR (Q-PCR) method. Raw 264.7 cells were purchased from ATCC; CCK-8 kit was purchased from Meilunbio, item no. MA0218-3; LPS was purchased from Sigma, item no. L2630.
(§1) Experimental methods: first, 5*10^4 cells/well Raw 264.7 cells were placed in 12-well plates and incubated overnight. On the second day, 0.1% DMSO was added to the control cells, 1 μg/ml LPS as well as 0.1% DMSO was added to the model group, 1 μg/ml LPS as well as 1 μM of the compounds (oxyacanthine hydrochloride (oxy), 1, 2, tetrandrine (tet), 3, 4, 6, 58) was added to the treatment group, and the 12-well plates were sterilized and incubated in a constant temperature incubator for 16 hours. Cellular mRNA was extracted by lysis using Trizol (Yisheng, 10606ES60) and detected by real-time quantitative PCR after reverse transcription.

The test system of data set [3] is inflammatory factor mRNA in Raw 264.7 cells. Nature of the data set: mRNA levels of inflammatory indicators in TNF-α-induced inflammation model of Raw264.7 cells (Q-PCR). The following applies: 10 ng/ml TNF-α, 1 μM compound, 16 hours. The data set is classed as cell-based. As for the experimental part: In this embodiment, the effect of compounds on TNF-α-induced inflammation levels in Raw 264.7 cells was analyzed by cell viability combined with inflammatory factor expression levels; cell viability was analyzed by CCK-8 assay; and mRNA expression levels of inflammation-associated indicators were detected by real-time quantitative PCR (Q-PCR) method. Raw 264.7 cells were purchased from ATCC, CCK-8 kit was purchased from Meilunbio, item number MA0218-3, TNF-α was purchased from Merck, item no. GF314.
as §1, with “10 ng/ml TNF-α” for “1 μg/ml LPS”, “transcription, the primers are the same as in Table 2.” for “transcription.”

Data set [4] deals with TNF-α and IL1β mRNA in A549 cells. Nature of the data set: mRNA levels of injury indicators in TNF-α-induced A549 cell injury (Q-PCR). It counts as cell-based. The following applies: 10 ng/ml TNF-α, 1 μM compound, 24 hours. As for the experimental part:
In this example, cell viability combined with cell death-associated molecules were used to analyze the effect of compounds on the level of TNF-α-induced injury in A549 lung epithelial cells. Cell injury was observed by microscopy; cell viability was analyzed by CCK-8 assay; and mRNA expression levels of injury-related indicators were detected by real-time quantitative PCR (Q-PCR) method. A549 cells were purchased from ATCC, CCK-8 kit was purchased from Meilunbio, item no. MA0218-3, and LPS was purchased from Sigma, item no. L2630.
Experimental methods: first, 5*10^4 cells/well A549 cells were placed in 12-well plates and incubated overnight. On the second day, 0.1% DMSO was added to the control cells, 10 ng/ml TNF-α as well as 0.1% DMSO was added to the model group, 10 ng/ml TNF-α as well as 1 μM of the compounds (oxy, 1, 2, tet, 3, 4, 6, 58) was added to the treatment group, and the 12-well plates were sterilized and incubated in a constant temperature incubator for 24 hours. Cellular mRNA was extracted by lysis using Trizol (Yisheng, 10606ES60) and detected by real-time quantitative PCR after reverse transcription.

Data set [5] concerns the target novel coronavirus envelope protein (2-E) ion channel (Severe acute respiratory syndrome coronavirus 2, UniProt P0DTC4). The experiment in a line: Novel coronavirus envelope protein (2-E) ion channel activity test, planar lipid bilayer (BLM). The data set is classed as biochemical, SARS-CoV-2. Conditions: room temperature, 1, 10, 50, 100 μM, read-out: Inhibition against 2-E ion channels IC50.

The test system of a further data set is Vero E6 cells. The experiment in a line: Cytotoxicity test on Vero E6 cells (CCK8). The data set is classed as cell-based. As for the experimental part:
In this embodiment, the half toxicity concentration of each embodiment on Vero E6 cells was determined by CCK8 kit analysis (CC50).

For data set [6], the system named is A549 lung epithelial cells. Nature of the data set: Anti TGF-β1-induced fibrosis assay in A549 lung epithelial cells (microscopy, Western Blot). It counts as cell-based. Conditions: 10 ng/ml TGF-β1, 1 μM compound. As for the experimental part:
Cell injury was observed by microscopic observation; cell viability was analyzed by CCK-8 assay; and protein expression levels of fibrosis-related indicators were detected by Western Blot method. A549 cells were purchased from ATCC; CCK-8 kit was purchased from Meilunbio, item number MA0218-3; TGF-β1 was purchased from MCE, item number HY-P70543; primary antibodies: Collagen was purchased from ARG21965, item no. arigobio; α-smooth muscle actin was purchased from CST, item no. mAb #19245; VIMENTN was purchased from CST, item no. mAb #5741; GAPDH was purchased from Yeasen, item no. 30201ES20.
Experimental methods: first, 8000 cells/well A549 cells were placed in 96-well plates and incubated overnight. On the second day, 0.1% DMSO was added to the control cells, 10 ng/ml TGF-β1 as well as 0.1% DMSO was added to the model group, 10 ng/ml TGF-β1 as well as 1 μM of the compounds (oxy, 1, 2, tet, 3, 4, 6, 58) was added to the treatment group, and the 96-well plates were sterilized and incubated in a constant temperature incubator for 72 hours. Finally, cell injury and growth were observed using a microscope; the viability of the cells was detected by CCK-8 kit.
On the technique in general: In western blotting, separated proteins are transferred to a membrane and probed.

For data set [7] the following is noted: cited from earlier work.

What is called EC50 is the concentration needed to bring the measured effect to its halfway point. One may read the IC50 as the point on the concentration scale where inhibition reaches its midpoint.

Some results are limits rather than exact numbers.

Sequence of novel coronavirus envelope protein (2-E) ion channel (P0DTC4 whole entry, looked up): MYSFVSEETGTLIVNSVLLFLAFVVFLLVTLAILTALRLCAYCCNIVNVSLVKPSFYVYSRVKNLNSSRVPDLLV

As to “oxyacanthine hydrochloride [reference compound]”, the EC50 in data set [1] (read-out: Inhibition against viral replication of the original strain EC50) is more than 10 µM. In addition, in data set [2], the “inhibition of inflammatory factors (IL-6, IL-1β, CXCL9 mRNA) in LPS-induced inflammation model” value is given as “significant inhibition”. Also, the “inhibition of inflammatory factors (mRNA) in TNF-α-induced inflammation model” value in data set [3] is “significant inhibition”. Moreover, in data set [4], the “inhibition of injury (damage) factors mRNA in TNF-α-induced A549 lung cell injury model” value is “significantly inhibited”. For the same molecule, the IC50 in data set [5] is more than 100 µM; in the data set with Vero E6 cells (Vero E6 cells, CCK8 kit), less than 30 µM. In addition, in data set [6], the “alleviation of TGF-β1-induced fibrosis in A549 lung epithelial cells (Collagen1, α-SMA by WB)” value was “partially alleviate fibrosis”.
For the molecule `COc1cc2c3cc1Oc1c(OC)c(OC)cc4c1[C@H](Cc1ccc(cc1)Oc1cc(ccc1O)C[C@H]3N(C)CC2)N(C)CC4` [Oxyacanthine, oxyacanthine, reference compound], the “antiviral activity against novel coronaviruses (background statement)” value in data set [1] was “weak antiviral activity”. Moreover, in the data set on Vero E6 cells (inventors' screening of natural products), the “cytotoxicity (background statement)” value is “high cytotoxicity”. The “solubility in ethanol, chloroform, ether, dilute acid” value in data set [7] (ethanol, chloroform, ether, dilute acid) is “soluble”. The solubility in water entry in data set [7] (water) is recorded as “almost insoluble”.

Source of the values: patent publication US20250296937A1, “CYCLIC BISBENZYL TETRAHYDROISOQUINOLINE COMPOUND, AND PREPARATION METHOD THEREFOR AND USE THEREOF” (Shanghai Institute of Materia Medica, Chinesse Academy of …, priority 2021, published 2025).
